Measurements as given in BindingDB's records for patent US20240308985 (Psy Therapeutics, 2024).

Target: T1, Fatty-acid amide hydrolase 1 (Homo sapiens, UniProt O00519)
T1 sequence (O00519 whole entry): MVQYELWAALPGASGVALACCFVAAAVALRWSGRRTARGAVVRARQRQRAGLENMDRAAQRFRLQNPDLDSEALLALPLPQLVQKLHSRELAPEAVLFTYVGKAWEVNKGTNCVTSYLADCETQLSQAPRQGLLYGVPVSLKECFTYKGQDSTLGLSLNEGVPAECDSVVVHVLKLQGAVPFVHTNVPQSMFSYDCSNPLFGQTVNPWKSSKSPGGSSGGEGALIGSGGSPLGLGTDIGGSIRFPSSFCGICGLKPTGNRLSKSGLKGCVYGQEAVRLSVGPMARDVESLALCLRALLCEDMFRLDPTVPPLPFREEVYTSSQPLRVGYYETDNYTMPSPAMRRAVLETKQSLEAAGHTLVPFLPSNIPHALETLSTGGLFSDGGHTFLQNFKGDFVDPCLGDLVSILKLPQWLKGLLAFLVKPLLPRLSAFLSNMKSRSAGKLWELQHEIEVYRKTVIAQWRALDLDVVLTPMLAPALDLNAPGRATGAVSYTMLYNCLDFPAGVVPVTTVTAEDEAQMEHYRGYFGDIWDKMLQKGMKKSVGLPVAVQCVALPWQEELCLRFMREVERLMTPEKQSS
Assay: Measuring FAAH Inhibition Potency
Experimental: MAGL inhibitor compounds were also counter-screened for FAAH inhibition potency using the following assay. Assessment of FAAH inhibition was performed using Fatty Acid Amide Hydrolase Inhibitor Screening Assay Kit (Cayman Item No. 10005196) following manufacture's instruction with some modifications. The kit utilizes human recombinant FAAH and the fluorescent substrate, AMC Arachidonoyl amide (AAMCA). 5 μL of assay buffer (125 mM Tris, pH 9.0, 1 mM EDTA, i.e. ethylenediaminetetraacetic acid) was added to a 384-well black plate (Corning, 3573). Test compounds and control inhibitor JZL-195 (Cayman Chemical, 13668) were tested in 10-concentration IC50 mode with 3-fold serial dilution at a starting concentration of 100 μM and 10 μM, respectively. 300 nL or 30 nL of test compounds were delivered into a 384-well black plate (Corning, 3573) using a Labcyte Echo, followed by addition of 15 μL of FAAH enzyme (Cayman, 700302) in assay buffer. After a 5-minute pre-incubation at room temperature, 10 μL of AAMCA was added in assay buffer to start the reaction. Final concentration of FAAH enzyme is not specified and AAMCA substrate was used at the 20 uM. […] The reaction was allowed to progress for 60 minutes, while the plate was read on an Envision plate reader at an Ex/Em of 350/460 nm with readings every minute. The data was analyzed in Microsoft Excel, using the slope between 30 and 59 minutes. […]

For `Cc1cc(C2=CC3(C2)CN(C(=O)c2cc(O)ccc2F)C3)n(-c2ccccc2C)n1` [US20240308985, Compound 120], the IC50 was > 10 µM.
